Reference: patent publication US5213978A, “Protease from Micrococcus sedentarius for degrading protein of human callus or corn tissue” (Scholl Plc, priority 1990, dated 1993)

System: Micrococcus sedentarius NCIMB 40287
Assay: Antibiotic sensitivities by the disc method
Type: cell-based
Settings: disc amount as printed per antibiotic (1 unit, 5-30 μg)

Compound	Antibiotic sensitivity
CN[C@H](CC(C)C)C(=O)N[C@H]1C(=O)N[C@@H](CC(N)=O)C(=O)N[C@H]2C(=O)N[C@H]3C(=O)N[C@H](C(=O)N[C@H](C(=O)O)c4cc(O)cc(O)c4-c4cc3ccc4O)[C@H](O)c3ccc(c(Cl)c3)Oc3cc2cc(c3O[C@@H]2O[C@H](CO)[C@@H](O)[C@H](O)[C@H]2O[C@H]2C[C@](C)(N)[C@H](O)[C@H](C)O2)Oc2ccc(cc2Cl)[C@H]1O [Vanomycin]	S
Neomycin	S
